Values after ≈ are worked out from the molar mass of the structure shown. Where a SMILES comes first, the peptide text is derived from it. [ ]: non-standard residue; d: D form. dLac(3-vinyl) = C=CC[C@@H](O)C(=O)O; dHica = CC(C)C[C@@H](O)C(=O)O; NMeV = CN[C@H](C(=O)O)C(C)C; NMeA = CN[C@@H](C)C(=O)O; βAla = NCCC(=O)O
Test system: Hepatitis B virus
Assay: Antiviral activity against Hepatitis B virus infected in human Hep3B cells assessed as surface antigen production
Format: functional, organism-based, Hep 3B2

Row | IC50 | SMILES
1 | 1.5 µg/mL (≈ 2.65 µM) | CC(C)C[C@H]1OC(=O)CCNC(=O)[C@H](C)N(C)C(=O)[C@H](C(C)C)NC(=O)[C@H](C(C)C)NC(=O)[C@@H]2CCCN2C1=O [DESMETHYLDESTRUXIN B2] (cyclo([NMeA][βAla][dHica]PVV))
2 | 0.4 µg/mL (≈ 0.71 µM) | C=CC[C@H]1OC(=O)CCNC(=O)[C@H](C)N(C)C(=O)[C@H](C(C)C)N(C)C(=O)[C@H](C(C)C)NC(=O)[C@@H]2CCCN2C1=O [DESTRUXIN A2] (cyclo([NMeA][βAla][dLac(3-vinyl)]PV[NMeV]))

The next lines start with the compound.

Row | SMILES | IC50
3 | CC[C@H](C)[C@@H]1NC(=O)[C@@H]2CCCN2C(=O)[C@@H](CC(C)C)OC(=O)CCNC(=O)[C@H](C)N(C)C(=O)[C@H](C(C)C)NC1=O [DESMETHYLDESTRUXIN B] (cyclo(IV[NMeA][βAla][dHica]P)) | 0.6 µg/mL (≈ 1.03 µM)
4 | CC[C@H](C)[C@@H]1NC(=O)[C@@H]2CCCN2C(=O)[C@@H](CC(C)C)OC(=O)CCNC(=O)[C@H](C)N(C)C(=O)[C@H](C(C)C)N(C)C1=O (cyclo(I[NMeV][NMeA][βAla][dHica]P)) | 0.2 µg/mL (≈ 0.337 µM)
5 | CC(C)C[C@H]1OC(=O)CCNC(=O)[C@H](C)N(C)C(=O)[C@H](C(C)C)N(C)C(=O)[C@H](C(C)C)NC(=O)[C@@H]2CCCN2C1=O [DESTRUXIN B2] (cyclo([NMeA][βAla][dHica]PV[NMeV])) | 0.3 µg/mL (≈ 0.517 µM)
6 | C=CC[C@H]1OC(=O)CCNC(=O)[C@H](C)N(C)C(=O)[C@H](C(C)C)NC(=O)[C@H]([C@@H](C)CC)NC(=O)[C@@H]2CCCN2C1=O [DESMETHYLDESTRUXIN A] | 1.2 µg/mL (≈ 2.13 µM)
7 | C=CC[C@H]1OC(=O)CCNC(=O)[C@H](C)N(C)C(=O)[C@H](C(C)C)N(C)C(=O)[C@H]([C@@H](C)CC)NC(=O)[C@@H]2CCCN2C1=O (cyclo(I[NMeV][NMeA][βAla][dLac(3-vinyl)]P)) | 0.1 µg/mL (≈ 0.173 µM)
